For 9 compounds, TGI results are on record in PubChem BioAssay (NCI).

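Assay format: 96-well plates, 48-hour exposure. TGI marks complete inhibition of growth.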

Among the test systems are HCC-2998 colon; COLO 205 colon; UACC-257 melanoma; SR leukemia; SN12C renal; NCI-H226 lung; HOP-62 NSCLC; IGROV1 ovarian; SNB-19 CNS; A549 NSCLC; HCT-15 colon; SW-620 colon; HT29 colon; HL-60(TB) leukemia; MCF7 breast; UO-31 renal; BT-549 breast; HS 578T breast.
Holding throughout (assay): DTP human tumour cell line panel, 48 h

As to `CCC12CCCNC1c1c(n(C)c3ccccc13)C(C(=O)OC)C2` (stereo not given), the TGI with HCC-2998 colon was over 275 µM; with COLO 205 colon, 82.5 µM; in the assay on UACC-257 melanoma, 255 µM; in the assay with SR leukemia, over 275 µM; in the assay with SN12C renal, over 275 µM; in the assay on NCI-H226 lung it was over 275 µM. Further, the TGI in the assay on HOP-62 NSCLC, in the assay on IGROV1 ovarian, in the assay on SNB-19 CNS, in the assay with A549 NSCLC, in the assay with HCT-15 colon and in the assay on SW-620 colon was over 275 µM each time. Besides, the figures for the TGI in the assay with HT29 colon and in the assay on HL-60(TB) leukemia were 114 µM and over 275 µM, respectively.

Take `CC1(C)OCC(C2OC(OC(=O)c3ccc([N+](=O)[O-])cc3)C3OC(C)(C)OC23)O1` (stereo not given): the TGI with MCF7 breast, in the assay on HCC-2998 colon, in the assay on COLO 205 colon, in the assay with UACC-257 melanoma, in the assay with SR leukemia and in the assay with SN12C renal was over 100 µM in each case. For the same compound, the concentration for total growth inhibition (TGI) with UO-31 renal, in the assay on NCI-H226 lung, with HOP-62 NSCLC, with IGROV1 ovarian, in the assay on SNB-19 CNS and in the assay with A549 NSCLC was over 100 µM each time. In addition, the TGI in the assay with HCT-15 colon, with SW-620 colon, in the assay on HT29 colon and in the assay on BT-549 breast was over 100 µM each time.

Consider `O=c1c(C2=NCCC2)c(-c2ccc[nH]2)[nH]n1-c1ccccc1`, for which the TGI in the assay with COLO 205 colon, in the assay with UACC-257 melanoma, in the assay with SN12C renal, in the assay with UO-31 renal, in the assay on NCI-H226 lung and in the assay on SNB-19 CNS was over 100 µM each time. Also, the TGI with A549 NSCLC, in the assay with HCT-15 colon, in the assay with SW-620 colon, in the assay on HT29 colon, with HL-60(TB) leukemia and in the assay with BT-549 breast was over 100 µM in each case.

With `O=C(OC[C@H]1C[C@H]2C(=O)CCC[C@H]2O1)c1ccccc1`, the TGI with HS 578T breast, in the assay on MCF7 breast, in the assay on COLO 205 colon, in the assay on UACC-257 melanoma, in the assay on SR leukemia and in the assay with SN12C renal was over 100 µM throughout. Moreover, the TGI in the assay on UO-31 renal, in the assay on NCI-H226 lung, with HOP-62 NSCLC, in the assay with IGROV1 ovarian, in the assay with SNB-19 CNS and with A549 NSCLC was over 100 µM throughout. Also, the TGI in the assay with HCT-15 colon, in the assay with SW-620 colon, in the assay with HT29 colon and with HL-60(TB) leukemia was over 100 µM each time.

Consider `Cc1cc(C)n2c(-c3ccccc3)c(C)cc2n1`, for which the TGI in the assay with HCC-2998 colon, in the assay on COLO 205 colon, with UACC-257 melanoma, with SN12C renal, in the assay with UO-31 renal and in the assay on NCI-H226 lung was over 100 µM in each case. Further, the TGI in the assay with HOP-62 NSCLC, with IGROV1 ovarian, in the assay with SNB-19 CNS, with A549 NSCLC, in the assay with HCT-15 colon and in the assay on SW-620 colon was over 100 µM throughout. Moreover, the values for the TGI with HT29 colon and in the assay on HL-60(TB) leukemia were over 100 µM and 50.4 µM, respectively.

With `COC(=O)C1=CC2CC1C(S(=O)(=O)c1ccccc1)C2S(=O)(=O)c1ccccc1` (stereo not given), the TGI was 34.4 µM in the assay with HCC-2998 colon; 22 µM with COLO 205 colon; 32.7 µM with UACC-257 melanoma; 11.3 µM in the assay on SR leukemia; 28.8 µM in the assay with SN12C renal; 27.7 µM with UO-31 renal. Besides, the TGI was 40.2 µM with NCI-H226 lung; over 100 µM in the assay with HOP-62 NSCLC; 98.9 µM in the assay with IGROV1 ovarian; over 100 µM in the assay on SNB-19 CNS; 69.3 µM in the assay with A549 NSCLC; 26.8 µM in the assay with HCT-15 colon. In addition, the TGI in the assay with SW-620 colon came out at 21 µM; in the assay on HT29 colon, 28.9 µM; in the assay on HL-60(TB) leukemia it was 7.29 µM.

With `CC(C)(C)CNC(=O)NCn1cc(-c2ccccc2)nn1`, the total growth inhibition concentration (TGI) with MCF7 breast, in the assay with HCC-2998 colon, in the assay with COLO 205 colon, in the assay on UACC-257 melanoma, with SR leukemia and with SN12C renal was over 100 µM each time. Besides, the TGI with NCI-H226 lung, in the assay on HOP-62 NSCLC, in the assay with IGROV1 ovarian, in the assay on SNB-19 CNS, with A549 NSCLC and in the assay with HCT-15 colon was over 100 µM in each case. For the same compound, the TGI in the assay on SW-620 colon, in the assay with HT29 colon, with HL-60(TB) leukemia and in the assay with BT-549 breast was over 100 µM each time.

For the compound `NC(=O)C(=CNC(=S)Nc1ccc(Cl)c(Cl)c1)C(N)=O`, the TGI in the assay on HS 578T breast is over 88.9 µM; with MCF7 breast, over 100 µM; in the assay with HCC-2998 colon, over 100 µM; in the assay with COLO 205 colon it was over 100 µM; in the assay on UACC-257 melanoma, over 100 µM; in the assay on SR leukemia, over 100 µM. Further, the TGI in the assay with SN12C renal is over 100 µM; in the assay on UO-31 renal, over 73.6 µM; in the assay with NCI-H226 lung it was over 100 µM; in the assay on HOP-62 NSCLC, over 100 µM; with IGROV1 ovarian, over 100 µM; with SNB-19 CNS it was over 100 µM. Further, the TGI in the assay on A549 NSCLC, in the assay with HCT-15 colon, in the assay on SW-620 colon, with HT29 colon and in the assay with HL-60(TB) leukemia was over 100 µM each time.

For the compound `CC(Oc1ccc(OCC2CCCCC2)cc1)C(=O)NCCO` (stereo not given), the TGI with UACC-257 melanoma, in the assay with SN12C renal, in the assay with UO-31 renal, with NCI-H226 lung, with IGROV1 ovarian and in the assay with SNB-19 CNS was over 100 µM throughout. Further, the TGI in the assay on A549 NSCLC, in the assay with HCT-15 colon, in the assay on HT29 colon and with HL-60(TB) leukemia was over 100 µM in each case.

For orientation: TGI means the concentration at which net growth stops. Higher therefore signals lower sensitivity of the cells.
